Results published in ChEMBL document CHEMBL1149829, “Terpenoids Produced by Actinomycetes: Napyradiomycins from Streptomyces antimycoticus NT17” (2008).
≈ marks a conversion by molar mass, not a printed value.

Tests used:
Type in all cases: functional
[1] = test system: Enterococcus faecalis; experiment: Antibacterial activity against Enterococcus faecalis ATCC 19433 in Mueller Hinton agar medium
[2] = test system: Bacillus subtilis; experiment: Antibacterial activity against Bacillus subtilis ATCC 6633 in Mueller Hinton agar medium
[3] = test system: Enterococcus faecium; experiment: Antibacterial activity against Enterococcus faecium ATCC 19434 in Mueller Hinton agar medium
[4] = test system: Staphylococcus aureus; experiment: Antibacterial activity against Staphylococcus aureus 209P JC1 in Mueller Hinton agar medium
[5] = test system: Streptococcus pyogenes; experiment: Antibacterial activity against Streptococcus pyogenes ATCC 12344 in Mueller Hinton agar medium

CC(C)=CCC/C(C)=C/C[C@@]12OC(C)(C)[C@H](Cl)C[C@]1(Cl)C(=O)C1=C(C2=O)C(=[N+]=[N-])C(=O)C=C1O
MIC [1]: 31.6 µM (≈ 16 µg/mL)
MIC [2]: 1 µM (≈ 0.507 µg/mL)
MIC [3]: 15.8 µM (≈ 8.02 µg/mL)
MIC [4]: 2 µM (≈ 1.01 µg/mL)
MIC [5]: 7.8 µM (≈ 3.96 µg/mL)

C=C1CC[C@H](Cl)C(C)(C)[C@@H]1C[C@@]12OC(C)(C)[C@H](Cl)C[C@]1(Cl)C(=O)C1=C(C2=O)C(=[N+]=[N-])C(=O)C=C1O
MIC [1]: 14.8 µM (≈ 8.02 µg/mL)
MIC [2]: 3.7 µM (≈ 2 µg/mL)
MIC [3]: 14.8 µM (≈ 8.02 µg/mL)
MIC [4]: 3.7 µM (≈ 2 µg/mL)
